Our source for the IC50 values is patent US20260132132A1, “3A,4,5,6-TETRAHYDRO-1 H-PYRAZOLO[3,4-C]PYRIDIN-7(7AH)-ONE DERIVATIVES AS FACTOR XIIA INHIBITORS” (KALVISTA PHARMACEUTICALS LIMITED, priority 2022, published 2026).

Each structure is given as a SMILES string.

The target in this assay is T1, Human Factor XIIa (hFXIIa) (Homo sapiens, UniProt P00748).
T1 construct: purchased Enzyme Research Laboratories
T1 sequence (P00748 373-615 limits assumed): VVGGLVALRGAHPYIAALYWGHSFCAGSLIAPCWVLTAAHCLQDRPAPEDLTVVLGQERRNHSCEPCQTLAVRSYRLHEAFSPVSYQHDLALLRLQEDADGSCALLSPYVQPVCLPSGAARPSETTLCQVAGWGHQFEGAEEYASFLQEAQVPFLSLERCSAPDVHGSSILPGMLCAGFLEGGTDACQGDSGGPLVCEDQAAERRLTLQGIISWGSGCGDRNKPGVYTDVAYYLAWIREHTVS
T1 sequence (P00748 20-372 partner limits assumed): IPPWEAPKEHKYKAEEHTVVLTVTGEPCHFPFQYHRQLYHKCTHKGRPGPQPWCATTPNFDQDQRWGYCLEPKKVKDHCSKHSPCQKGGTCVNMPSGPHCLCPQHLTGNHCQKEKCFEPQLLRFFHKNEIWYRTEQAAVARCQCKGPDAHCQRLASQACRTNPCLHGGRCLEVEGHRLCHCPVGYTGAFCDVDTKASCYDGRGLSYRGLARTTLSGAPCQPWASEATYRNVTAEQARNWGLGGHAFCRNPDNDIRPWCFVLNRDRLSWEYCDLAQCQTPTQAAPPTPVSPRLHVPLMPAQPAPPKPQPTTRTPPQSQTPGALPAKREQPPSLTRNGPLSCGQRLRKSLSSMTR
Kind of assay: Determination of Human Factor XIIa (hFXIIa) inhibition, fluorogenic substrate IC50 assay. The class given is biochemical. To be noted: fluorogenic substrate H-DPro-Phe-Arg-AFC at Km, 25° C., read-out: Human FXIIa IC50. How it is done:
Determination of Human Factor XIIa (hFXIIa) inhibition
The Km for the cleavage of the substrate by hFXIIa was determined by standard transformation of the Michaelis-Menten equation, with subsequent inhibition assays performed at substrate Km concentration.

For `O=C(Cn1nc(-c2cccc(Cl)c2)c2c1CCN(c1ccc3c(c1)CN(CCO)CC3)C2=O)NC1CC1` [Example 4004, 2-(3-(3-chlorophenyl)-5-(2-(2-hydroxyethyl)-1,2,3,4-tetrahydroisoquinolin-7-yl)-4-oxo-4,5,6,7-tetrahydro-1H-pyrazolo[4,3-c]pyridin-1-yl)-N-cyclopropylacetamide], the IC50 was in the range of 1000 to 3000 nM.
Regarding `COc1cccnc1CNC(=O)c1nn(-c2cccc(Cl)c2)c2c1CCN(c1cc3c(cn1)CCN(CCO)C3)C2=O` [Example 1221, 1-(3-chlorophenyl)-6-(6-(2-hydroxyethyl)-5,6,7,8-tetrahydro-2,6-naphthyridin-3-yl)-N-((3-methoxypyridin-2-yl)methyl)-7-oxo-4,5,6,7-tetrahydro-1H-pyrazolo[3,4-c]pyridine-3-carboxamide], the half-maximal inhibitory concentration (IC50) was 10 to 100 nM.
As for `CN1C(=O)CCCc2ccc(N3CCc4c(C(=O)NCC5CC5)nn(-c5cccc(Cl)c5)c4C3=O)cc21` [Example 1242, 1-(3-chlorophenyl)-N-(cyclopropylmethyl)-6-(1-methyl-2-oxo-2,3,4,5-tetrahydro-1H-benzo[b]azepin-8-yl)-7-oxo-4,5,6,7-tetrahydro-1H-pyrazolo[3,4-c]pyridine-3-carboxamide], the figure is 3000 to 10000 nM; as for `COC1CN(CCO)Cc2cc(N3CCc4c(C(=O)NCC5CC5)nn(-c5cccc(Cl)c5)c4C3=O)ccc21` (centres unmarked) [Example 1191, 1-(3-chlorophenyl)-N-(cyclopropylmethyl)-6-(2-(2-hydroxyethyl)-4-methoxy-1,2,3,4-tetrahydroisoquinolin-7-yl)-7-oxo-4,5,6,7-tetrahydro-1H-pyrazolo[3,4-c]pyridine-3-carboxamide], 300 to 1000 nM.
To `CCN1CCc2cnc(N3CCc4c(C(=O)NCC5CC5)nn(-c5cccc(Cl)c5)c4C3=O)nc2C1` [Example 1056, 1-(3-Chlorophenyl)-N-(cyclopropylmethyl)-6-(7-ethyl-5,6,7,8-tetrahydropyrido[3,4-d]pyrimidin-2-yl)-7] belongs 300 to 1000 nM; to `CN1CCc2ccc(N3CCc4c(C(=O)N5CCOCC5)nn(-c5cccc(Cl)c5)c4C3=O)cc2C1` [Example 1067, 1-(3-chlorophenyl)-6-(2-methyl-1,2,3,4-tetrahydroisoquinolin-7-yl)-3-(morpholine-4-carbonyl)-1,4,5,6-tetrahydro-7H-pyrazolo[3,4-c]pyridin-7-one], 1000 to 3000 nM; to `O=C(NCC1CC1)c1nn(-c2cccc(Cl)c2)c2c1CCN(c1cccc(CN3CCOC3=O)c1)C2=O` [Example 1316, 1-(3-chlorophenyl)-N-(cyclopropylmethyl)-7-oxo-6-(3-((2-oxooxazolidin-3-yl)methyl)phenyl)-4,5,6,7-tetrahydro-1H-pyrazolo[3,4-c]pyridine-3-carboxamide], 10000 to 40000 nM.
As for `CN1CCc2ccc(N3CCc4c(C(=O)NCC5CC5)nn(-c5csc(Cl)c5)c4C3=O)cc2C1=O` [Example 2015], the figure is 1000 to 3000 nM; as for `O=C(NCC1CC1)c1nn(-c2cccc(Cl)c2)c2c1CCN(c1cccc(CN3CCC(F)C3)c1)C2=O` (centres unmarked) [Example 1243, 1-(3-chlorophenyl)-N-(cyclopropylmethyl)-6-(3-((3-fluoropyrrolidin-1-yl)methyl)phenyl)-7-oxo-4,5,6,7-tetrahydro-1H-pyrazolo[3,4-c]pyridine-3-carboxamide], 1000 to 3000 nM.
As for `NCCN1CCc2ccc(N3CCc4c(C(=O)NCC5CC5)nn(-c5cccc(Cl)c5)c4C3=O)cc2C1` [Example 1098, 6-(2-(2-aminoethyl)-1,2,3,4-tetrahydroisoquinolin-7-yl)-1-(3-chlorophenyl)-N-(cyclopropylmethyl)-7-oxo-4,5,6,7-tetrahydro-1H-pyrazolo[3,4-c]pyridine-3-carboxamide], the half-inhibitory concentration (IC50) was in the range of 100 to 300 nM.
To `O=C(NCc1ncccc1Cl)c1nn(-c2cccc(Cl)c2)c2c1CCN(c1ccc3c(c1)CN(CCO)CC3)C2=O` [Example 1170, 1-(3-chlorophenyl)-N-((3-chloropyridin-2-yl)methyl)-6-(2-(2-hydroxyethyl)-1,2,3,4-tetrahydroisoquinolin-7-yl)-7-oxo-4,5,6,7-tetrahydro-1H-pyrazolo[3,4-c]pyridine-3-carboxamide] belongs 10 to 100 nM.
To `Cn1nccc1CNC(=O)c1nn(-c2cccc(Cl)c2)c2c1CCN(c1ccc3c(c1)CN(CCO)CC3)C2=O` [Example 1088, 1-(3-chlorophenyl)-6-(2-(2-hydroxyethyl)-1,2,3,4-tetrahydroisoquinolin-7-yl)-N-((1-methyl-1H-pyrazol-5-yl)methyl)-7-oxo-4,5,6,7-tetrahydro-1H-pyrazolo[3,4-c]pyridine-3-carboxamide] belongs 100 to 300 nM; to `CN1CCc2ccc(N3CCc4c(C(=O)NCC5CC5)nn(-c5cncc(Cl)c5)c4C3=O)cc2C1=O` [Example 2021, 1-(5-chloropyridin-3-yl)-N-(cyclopropylmethyl)-6-(2-methyl-1-oxo-1,2,3,4-tetrahydroisoquinolin-7-yl)-7-oxo-4,5,6,7-tetrahydro-1H-pyrazolo[3,4-c]pyridine-3-carboxamide], 3000 to 10000 nM.
Regarding `CN1CCc2ccc(N3CCc4c(C(=O)NCC5CC5)nn(-c5cccc(Cl)c5)c4C3=O)nc2C1` [Example 1034, 1-(3-Chlorophenyl)-N-(cyclopropylmethyl)-6-(7-methyl-5,6,7,8-tetrahydro-1,7-naphthyridin-2-yl)-7-oxo-4,5,6,7-tetrahydro-1H-pyrazolo[3,4-c]pyridine-3-carboxamide], the IC50 lay in the range of 300 to 1000 nM.
As for `CCN1CCc2ccc(N3CCc4c(C(=O)N[C@@H]5CCOC5)nn(-c5cccc(Cl)c5)c4C3=O)cc2C1` [Example 1091, (R)-1-(3-chlorophenyl)-6-(2-ethyl-1,2,3,4-tetrahydroisoquinolin-7-yl)-7-oxo-N-(tetrahydrofuran-3-yl)-4,5,6,7-tetrahydro-1H-pyrazolo[3,4-c]pyridine-3-carboxamide], the figure is 100 to 300 nM.
On to `Cc1ccncc1CNC(=O)c1nn(-c2cccc(Cl)c2)c2c1CCN(c1ccc3c(c1)C(=O)NCC3)C2=O` [Example 1240, 1-(3-chlorophenyl)-N-((4-methylpyridin-3-yl)methyl)-7-oxo-6-(1-oxo-1,2,3,4-tetrahydroisoquinolin-7-yl)-4,5,6,7-tetrahydro-1H-pyrazolo[3,4-c]pyridine-3-carboxamide], for which the concentration for half-maximal inhibition (IC50) fell in the range of 300 to 1000 nM.
As for `CN1CCc2ccc(N3CCc4c(C(=O)N[C@H](CO)c5ccccc5)nn(-c5cccc(Cl)c5F)c4C3=O)cc2C1` [Example 2001, (S)-1-(3-chloro-2-fluorophenyl)-N-(2-hydroxy-1-phenylethyl)-6-(2-methyl-1,2,3,4-tetrahydroisoquinolin-7-yl)-7-oxo-4,5,6,7-tetrahydro-1H-pyrazolo[3,4-c]pyridine-3-carboxamide], the figure is 10 to 100 nM; as for `Cc1cc(CNC(=O)c2nn(-c3cccc(Cl)c3)c3c2CCN(c2ccc4c(c2)C(=O)N(CCO)CCO4)C3=O)nn1C` [Example 1288, 1-(3-Chlorophenyl)-N-[(1,5-dimethylpyrazol-3-yl)methyl]-6-[4-(2-hydroxyethyl)-5-oxo-2,3-dihydro-1,4-benzoxazepin-7-yl]-7-oxo-4,5-dihydropyrazolo[3,4-c]pyridine-3-carboxamide], 10 to 100 nM; as for `CN1CCc2ccc(N3CCc4c(C(=O)NC56CC(O)(C5)C6)nn(-c5cccc(Cl)c5)c4C3=O)cc2C1` [Example 1437, 1-(3-chlorophenyl)-N-(3-hydroxybicyclo[1.1.1]pentan-1-yl)-6-(2-methyl-1,2,3,4-tetrahydroisoquinolin-7-yl)-7-oxo-4,5,6,7-tetrahydro-1H-pyrazolo[3,4-c]pyridine-3-carboxamide], 100 to 300 nM.
Turning to `CN1CCc2ccc(-n3cnc4c(C#N)nn(-c5cccc(Cl)c5)c4c3=O)cc2C1` [Example 3001, 1-(3-chlorophenyl)-6-(2-methyl-1,2,3,4-tetrahydroisoquinolin-7-yl)-7-oxo-6,7-dihydro-1H-pyrazolo[4,3-d]pyrimidine-3-carbonitrile], the IC50 was 300 to 1000 nM.
With `COCc1nn(-c2cccc(Cl)c2)c2c1CCN(c1ccc3c(c1)CN(CCO)CC3)C2=O` [Example 1069, 1-(3-chlorophenyl)-6-(2-(2-hydroxyethyl)-1,2,3,4-tetrahydroisoquinolin-7-yl)-3-(methoxymethyl)-1,4,5,6-tetrahydro-7H-pyrazolo[3,4-c]pyridin-7-one], the IC50 is 300 to 1000 nM.
Regarding `CCN1CCc2ccc(N3CCc4c(C(=O)NC5C6COCC65)nn(-c5cccc(Cl)c5)c4C3=O)cc2C1` (centres unmarked) [Example 1093, N-(3-oxabicyclo[3.1.0]hexan-6-yl)-1-(3-chlorophenyl)-6-(2-ethyl-1,2,3,4-tetrahydroisoquinolin-7-yl)-7-oxo-4,5,6,7-tetrahydro-1H-pyrazolo[3,4-c]pyridine-3-carboxamide], the IC50 was in the range of 100 to 300 nM.
To `CN1CCc2ccc(N3CCc4c(C(=O)NCC5(CO)CCC5)nn(-c5cccc(Cl)c5)c4C3=O)cc2C1` [Example 1049, 1-(3-chlorophenyl)-N-((1-(hydroxymethyl)cyclobutyl)methyl)-6-(2-methyl-1,2,3,4-tetrahydroisoquinolin-7-yl)-7-oxo-4,5,6,7-tetrahydro-1H-pyrazolo[3,4-c]pyridine-3-carboxamide] belongs 100 to 300 nM.

The IC50 is the concentration needed to halve the response being measured.
